Measurements taken from PMC4126514 (Toxicology and applied pharmacology, 2011).

What was measured:
liver = conditions: when co-treated with TCDD; ref Mitchell et al. 2010; cited from earlier work
C57BL/6 mice = experiment: Organ and body weights; type: in vivo, mouse; conditions: 24 h dose-response study
liver of C57BL/6 mice [1] = experiment: Liver histopathology; type: in vivo, mouse
liver of C57BL/6 mice [2] = experiment: Hepatic triglyceride measurement; type: in vivo, mouse
[3] = ref Diliberto et al. 1999; cited from earlier work
[4] = liver, after seven days; ref Kopec et al. 2010b; cited from earlier work
AhR = conditions: ref Craft et al. 2002; Honkakoski et al. 2003; Tabb et al. 2004; Kopec et al. 2010b; cited from earlier work
hepatic gene expression = conditions: liver, 300 mg/kg PCB153; ref Kopec et al. 2010b; cited from earlier work

| SMILES | increase in hepatic proliferation (liver) | relative liver weight (RLW) (C57BL/6 mice) | hepatic inflammation / cell infiltration (liver of C57BL/6 mice [1]; 24 h dose-response, TCDD 15, 30, 45 μg/kg, MIX three highest combinations) | hepatic inflammation (liver of C57BL/6 mice [1]; time course study) | hepatocellular vacuolization (liver of C57BL/6 mice [1]; time course study) | hepatic triglycerides (liver of C57BL/6 mice [2]) | hepatic TCDD accumulation, fold lower in Cyp1a2 null mice compared to wild types [3] [fold] | hepatic level at 168 h [4] | hepatocellular hypertrophy (liver of C57BL/6 mice [1]; time course study) | AhR binding or activation (AhR) | down-regulation of Elovl5 (hepatic gene expression) |
| --- | --- | --- | --- | --- | --- | --- | --- | --- | --- | --- | --- |
| Clc1cnc(Oc2ccc(Oc3ncc(Cl)cc3Cl)cc2)c(Cl)c1 [TCPOBOP] | 30–50% |  |  |  |  |  |  |  |  |  |  |
| Clc1cc2c(cc1Cl)Oc1cc(Cl)c(Cl)cc1O2 [TCDD, 2,3,7,8-tetrachlorodibenzo-p-dioxin] |  | comparable increases in RLW in all but the lowest dose groups | minimal multifocal inflammation | moderate multifocal inflammation | marked hepatocellular vacuolization | significant increases | 10 | more modest reductions |  |  |  |
| Clc1cc(Cl)c(-c2cc(Cl)c(Cl)cc2Cl)cc1Cl [PCB153, 2,2′,4,4′,5,5′-hexachlorobiphenyl] |  | increased RLW only at 100 and 300 mg/kg |  | did not elicit inflammation | vacuolization comparable to levels observed in vehicles | no effect |  | dramatically decreased | mild to moderate centrilobular hypertrophy | does not bind or activate | ~ 2 fold |
